Laboratory results published in US12516064B2, “Tetrahydropyridopyrimidines and related analogs for inhibiting YAP/TAZ-TEAD” (THE KATHOLIEKE UNIVERSITEIT LEUVEN, priority 2022, dated 2026).

How the values were obtained:
Type in all cases: cell-based
[1] = system: YAP/TAZ-TEAD transcription; assay: Reporter gene assay for measuring the inhibition of YAP/TAZ-TEAD transcription; conditions: Homo sapiens, HEK-293T; Hek293T cells transiently transfected with TEAD-responsive element luciferase reporter; 24 hours incubation
Experimental: Hek293T cells are cultured in DMEM supplemented with 10% fetal bovine serum, Sodium pyruvate, Sodium bicarbonate, L-glutamine. The cells are harvested and transiently transfected with TEAD-responsive element luciferase reporter. Transfected cells are plated in 384-wells plate containing pre-diluted compounds. After 24 hours incubation at 37° C./5% CO2, assay plates were cooled down to RT and levelled to an equal volume per well, prior to the addition of 25 uL luciferase substrate SteadyLite (Perkin Elmer)/well. The plate was shaken for 10 min at 600 rpm, centrifuged for 1 min at 500 rpm and measured with an Envision reader (PerkinElmer). The amount of relative light units produced by the TEAD reporter is used to calculated percent of inhibition.
The percent of reporter inhibition was calculated in the presence of a positive control inhibitor (100% inhibition) versus a condition with the presence of the vehicle basal activity of the reporter (0% inhibition). The ability of a test compound to inhibit this activity was determined as: Percentage inhibition=[1−((RLU determined in the presence of vehicle−RLU determined for sample with test compound present) divided by (RLU determined in the presence of vehicle−RLU determined for sample with positive control inhibitor))]*100 The activities of example compounds tested are depicted in Table 8. The activity ranges A, B and C refer to IC50 values in the reporter gene assay as follows: “A”: EC50<1 μM; “B”: 1 μM≤EC50≤3.0 μM and “C”: EC50>3.0 μM, NT=not tested.

NCI-H226 = assay: Mesothelioma cell line proliferation assay (NCI-H226); conditions: Homo sapiens, 144 h; NCI-H226 cells; 6 days with compound; cell viability by ATPlite
Experimental: (§1) Mesothelioma cell lines, NCI-H226 and NCI-H2052 (all sourced from the ATCC cell culture collection) are plated in 96-well plates (Corning® 96 Well White Polystyrene Microplate clear flat bottom, white polystyrene (TC-Treated)), at 1500 cells/well in full medium (RPMI 1640 ATCC modification with L-glutamine, HEPES, Phenol Red, Sodium Pyruvate, High glucose, Low sodium bicarbonate and 10% fetal bovine serum). Cells are incubated overnight at 37° C. in an incubator with 5% CO2. Then compounds, dissolved in DMSO, are added in dose-response. Cells are incubated with compound dilutions for another 6 days at 37° C. in an incubator with 5% CO2. Cell viability is quantitated using the ATPlite kit (Perkin-Elmer) and the luminescence is read-out using an Envision instrument (Perkin-Elmer). The amount of relative light units produced using the ATPlite kit is used to calculated percent of inhibition.
(§2) The activities of some example compounds are depicted in Table 9. The activity ranges A, B and C refer to EC50 values in the mesothelioma cell line proliferation assay as described as follows: “A”: EC50<1 μM; “B”: 1 μM≤EC50≤10 μM and “C”: EC50>10 μM; NT: not tested.

NCI-H2052 = assay: Mesothelioma cell line proliferation assay (NCI-H2052); conditions: Homo sapiens, 144 h; NCI-H2052 cells; 6 days with compound; cell viability by ATPlite
Experimental: as §1, §2

Compound | EC50 [1] [nM] | EC50 (NCI-H226) [nM] | EC50 (NCI-H2052) [nM]
C=CC(=O)N1Cc2nc(Cc3ccccc3)nc(-c3ccn(C)n3)c2C1 [Cpd. No. 20, 1-(2-benzyl-4-(1-methyl-1H-pyrazol-3-yl)-5,7-dihydro-6H-pyrrolo[3,4-d]pyrimidin-6-yl)prop-2-en-1-one] | < 1000 | < 1000 | 1000 to 10000
C=CC(=O)N1CCc2c(nc(Cc3ccccc3)nc2-c2ccn(C)n2)C1 [Cpd. No. 32, 1-(2-benzyl-4-(1-methyl-1H-pyrazol-3-yl)-5,8-dihydropyrido[3,4-d]pyrimidin-7(6H)-yl)prop-2-en-1-one] | < 1000 | < 1000 | < 1000
C=CC(=O)N1CCc2c(nc(Cc3ccccc3)nc2-c2ccn(Cc3cccnc3)n2)C1 [Cpd. No. 35, 1-(2-benzyl-4-(1-(pyridin-3-ylmethyl)-1H-pyrazol-3-yl)-5,8-dihydropyrido[3,4-d]pyrimidin-7(6H)-yl)prop-2-en-1-one] | < 1000 | < 1000 | 1000 to 10000
C=CC(=O)N1CCc2c(nc(Cc3cccc(F)c3)nc2-c2ccn(C)n2)C1 [Cpd. No. 43, 1-(2-(3-fluorobenzyl)-4-(1-methyl-1H-pyrazol-3-yl)-5,8-dihydropyrido[3,4-d]pyrimidin-7(6H)-yl)prop-2-en-1-one] | < 1000 | < 1000 | 1000 to 10000
C=CC(=O)N1CCc2c(nc(-c3ccccc3)nc2-c2cnn(C(F)F)c2)C1 [Cpd. No. 61, 1-(4-(1-(difluoromethyl)-1H-pyrazol-4-yl)-2-phenyl-5,8-dihydropyrido[3,4-d]pyrimidin-7(6H)-yl)prop-2-en-1-one] | 1000 to 3000 | – | –
C=CC(=O)N1CCc2c(nc(-c3ccccc3)nc2-c2ccnn2C)C1 [Cpd. No. 62, 1-(4-(1-methyl-1H-pyrazol-5-yl)-2-phenyl-5,8-dihydropyrido[3,4-d]pyrimidin-7(6H)-yl)prop-2-en-1-one] | 1000 to 3000 | – | –
C=CC(=O)N1CCc2c(nc(-c3ccccc3)nc2-c2cccnc2)C1 [Cpd. No. 63, 1-(2-phenyl-4-(pyridin-3-yl)-5,8-dihydropyrido[3,4-d]pyrimidin-7(6H)-yl)prop-2-en-1-one] | < 1000 | – | –
C=CC(=O)N1CCc2c(nc(-c3ccccc3)nc2-c2ccccc2)C1 [Cpd. No. 64, 1-(2,4-diphenyl-5,8-dihydropyrido[3,4-d]pyrimidin-7(6H)-yl)prop-2-en-1-one] | < 1000 | – | –
C=CC(=O)N1CCc2c(nc(-c3ccccc3)nc2-c2ccncc2)C1 [Cpd. No. 66, 1-(2-phenyl-4-(pyridin-4-yl)-5,8-dihydropyrido[3,4-d]pyrimidin-7(6H)-yl)prop-2-en-1-one] | 1000 to 3000 | – | –
C=CC(=O)N1CCc2c(nc(-c3ccccc3)nc2-c2ccccn2)C1 [Cpd. No. 67, 1-(2-phenyl-4-(pyridin-2-yl)-5,8-dihydropyrido[3,4-d]pyrimidin-7(6H)-yl)prop-2-en-1-one] | < 1000 | – | –
C=CC(=O)N1CCc2cnc(-c3ccccc3)nc2C1 [Cpd. No. 68, 1-(2-phenyl-5,8-dihydropyrido[3,4-d]pyrimidin-7(6H)-yl)prop-2-en-1-one] | < 1000 | – | –
C/C=C/C(=O)N1CCc2c(nc(C3CCC(F)(F)CC3)nc2-c2ccn(C)n2)C1 [Cpd. No. 95, (E)-1-(2-(4,4-difluorocyclohexyl)-4-(1-methyl-1H-pyrazol-3-yl)-5,8-dihydropyrido[3,4-d]pyrimidin-7(6H)-yl)but-2-en-1-one] | < 1000 | – | –

Results, then the molecule that gave them:

EC50 [1] [nM] | EC50 (NCI-H226) [nM] | EC50 (NCI-H2052) [nM] | Compound
< 1000 | < 1000 | 1000 to 10000 | C=CC(=O)N1CCc2c(nc(-c3ccccc3)nc2-c2ccn(C)n2)C1 [Cpd. No. 39, 1-(4-(1-methyl-1H-pyrazol-3-yl)-2-phenyl-5,8-dihydropyrido[3,4-d]pyrimidin-7(6H)-yl)prop-2-en-1-one]
< 1000 | – | – | C=CC(=O)N1CCc2c(nc(-c3ccc(F)cc3)nc2-c2ccn(C(F)F)n2)C1 [Cpd. No. 70, 1-(4-(1-(difluoromethyl)-1H-pyrazol-3-yl)-2-(4-fluorophenyl)-5,8-dihydropyrido[3,4-d]pyrimidin-7(6H)-yl)prop-2-en-1-one]
< 1000 | – | – | C=CC(=O)N1CCc2c(nc(-c3ccc(C(F)(F)F)cc3)nc2-c2ccn(Cc3cccnc3)n2)C1 [Cpd. No. 72, 1-(4-(1-(pyridin-3-ylmethyl)-1H-pyrazol-3-yl)-2-(4-(trifluoromethyl)phenyl)-5,8-dihydropyrido[3,4-d]pyrimidin-7(6H)-yl)prop-2-en-1-one]
1000 to 3000 | – | – | Cn1ccc(-c2nc(-c3ccc(C(F)(F)F)cc3)nc3c2CCN(C(=O)CC#N)C3)n1 [Cpd. No. 75, 3-(4-(1-methyl-1H-pyrazol-3-yl)-2-(4-(trifluoromethyl)phenyl)-5,8-dihydropyrido[3,4-d]pyrimidin-7(6H)-yl)-3-oxopropanenitrile]
< 1000 | – | – | C=CC(=O)N1CCc2c(-c3ccn(C)n3)nc(-c3ccc(C(F)(F)F)cc3)nc2C1C (stereo not shown) [Cpd. No. 76, 1-(8-methyl-4-(1-methyl-1H-pyrazol-3-yl)-2-(4-(trifluoromethyl)phenyl)-5,8-dihydropyrido[3,4-d]pyrimidin-7(6H)-yl)prop-2-en-1-one]
1000 to 3000 | – | – | Cn1ccc(-c2nc(-c3ccc(C(F)(F)F)cc3)nc3c2CCN(C#N)C3)n1 [Cpd. No. 78, 4-(1-methyl-1H-pyrazol-3-yl)-2-(4-(trifluoromethyl)phenyl)-5,8-dihydropyrido[3,4-d]pyrimidine-7(6H)-carbonitrile]
1000 to 3000 | – | – | Cn1ccc(-c2nc(-c3ccc(C(F)(F)F)cc3)nc3c2CCN(S(C)(=O)=O)C3)n1 [Cpd. No. 79, 4-(1-methyl-1H-pyrazol-3-yl)-7-(methylsulfonyl)-2-(4-(trifluoromethyl)phenyl)-5,6,7,8-tetrahydropyrido[3,4-d]pyrimidine]
< 1000 | – | – | C=CS(=O)(=O)N1CCc2c(nc(-c3ccc(C(F)(F)F)cc3)nc2-c2ccn(C)n2)C1 [Cpd. No. 80, 4-(1-methyl-1H-pyrazol-3-yl)-2-(4-(trifluoromethyl)phenyl)-7-(vinylsulfonyl)-5,6,7,8-tetrahydropyrido[3,4-d]pyrimidine]
< 1000 | – | – | C=CC(=O)N1CCc2c(nc(-c3ccc(C(F)(F)F)cc3)nc2-c2nnn(C)n2)C1 [Cpd. No. 81, 1-(4-(2-methyl-2H-tetrazol-5-yl)-2-(4-(trifluoromethyl)phenyl)-5,8-dihydropyrido[3,4-d]pyrimidin-7(6H)-yl)prop-2-en-1-one]
< 1000 | – | – | C=CC(=O)N1CCc2c(nc(-c3ccc(C(F)(F)F)cc3)nc2-c2nnnn2C)C1 [Cpd. No. 82, 1-(4-(1-methyl-1H-tetrazol-5-yl)-2-(4-(trifluoromethyl)phenyl)-5,8-dihydropyrido[3,4-d]pyrimidin-7(6H)-yl)prop-2-en-1-one]
< 1000 | – | – | CN(C)C/C=C/C(=O)N1CCc2c(nc(-c3ccc(C(F)(F)F)cc3)nc2-c2ccn(C)n2)C1 [Cpd. No. 83, (E)-4-(dimethylamino)-1-(4-(1-methyl-1H-pyrazol-3-yl)-2-(4-(trifluoromethyl)phenyl)-5,8-dihydropyrido[3,4-d]pyrimidin-7(6H)-yl)but-2-en-1-one]
< 1000 | – | – | Cn1ccc(-c2nc(-c3ccc(C(F)(F)F)cc3)nc3c2CCN(C(=O)C2=CCCC2)C3)n1 [Cpd. No. 84, cyclopent-1-en-1-yl(4-(1-methyl-1H-pyrazol-3-yl)-2-(4-(trifluoromethyl)phenyl)-5,8-dihydropyrido[3,4-d]pyrimidin-7(6H)-yl)methanone]
< 1000 | – | – | CCC(=O)N1CCc2c(nc(-c3ccc(C(F)(F)F)cc3)nc2-c2ccn(C)n2)C1 [Cpd. No. 85, 1-(4-(1-methyl-1H-pyrazol-3-yl)-2-(4-(trifluoromethyl)phenyl)-5,8-dihydropyrido[3,4-d]pyrimidin-7(6H)-yl)propan-1-one]
1000 to 3000 | – | – | CCC(=O)N1CCc2c(nc(-c3ccc(C(F)(F)F)cc3)nc2-c2cn(C)nn2)C1 [Cpd. No. 91, 1-(4-(1-methyl-1H-1,2,3-triazol-4-yl)-2-(4-(trifluoromethyl)phenyl)-5,8-dihydropyrido[3,4-d]pyrimidin-7(6H)-yl)propan-1-one]
1000 to 3000 | – | – | CCC(=O)N1CCc2c(nc(-c3ccc(C(F)(F)F)cc3)nc2-c2cnn(C)n2)C1 [Cpd. No. 93, 1-(4-(2-methyl-2H-1,2,3-triazol-4-yl)-2-(4-(trifluoromethyl)phenyl)-5,8-dihydropyrido[3,4-d]pyrimidin-7(6H)-yl)propan-1-one]
